Source: ChEMBL document CHEMBL1155657, “Triterpene glycosides from the Far-Eastern sea cucumber Pentamera calcigera. 1. Monosulfated glycosides and cytotoxicity of their unsulfated derivatives” (J Nat Prod, 2000)

What was measured:
Format in all cases: functional, cell-based
P388 = experiment: Cytotoxicity against mouse P388 cells
A549 = experiment: Cytotoxicity against human A549 cells
HT-29 = experiment: Cytotoxicity against human HT29 cells
[1] = Cytotoxicity against human MEL-28 cells; details: SK-MEL-28

Measured: IC50

C=C(C)[C@H]1[C@@H]2C[C@@]3(C)C4=CC[C@H]5C(C)(C)[C@@H](O[C@@H]6OC[C@@H](O)[C@H](O)[C@H]6O[C@@H]6O[C@H](C)[C@@H](O[C@@H]7O[C@H](CO)[C@@H](O)[C@H](O[C@@H]8OC[C@@H](O)[C@H](OC)[C@H]8O)[C@H]7O)[C@H](O)[C@H]6O[C@@H]6O[C@H](C)[C@@H](O)[C@H](O)[C@H]6O)CC[C@]5(C)[C@@H]4CC[C@]13C(=O)O2
5 µg/mL: P388 | A549 | HT-29 | [1]

C=C(C)[C@H]1[C@@H]2C[C@@]3(C)C4=CC[C@H]5C(C)(C)[C@@H](O[C@@H]6OC[C@@H](O)[C@H](O)[C@H]6O[C@@H]6O[C@H](C)[C@@H](O[C@@H]7O[C@H](CO)[C@@H](O)[C@H](O[C@@H]8OC[C@@H](O)[C@H](OC)[C@H]8O)[C@H]7O)[C@H](O)[C@H]6O[C@@H]6O[C@H](CO)[C@@H](O)[C@H](O)[C@H]6O)CC[C@]5(C)[C@@H]4CC[C@]13C(=O)O2
5 µg/mL: P388 | A549 | HT-29 | [1]
